The assay concerns learning disorder after ischemia. The experiment in a line: Effect of remedying learning disorder after ischemia (passive avoidance method). It is filed as in vivo, Mongolian gerbils. As to conditions: p.o.; for Latent time (average ± S.E.): 1 h before 5-min ischemia, upper limit 300 sec, normal 246.5, control 71.5 sec; for Recovery ratio: normal = 100, control = 0. As for the experimental part:
Common carotid arteries on both sides of Mongolian gerbils (17 to 21 weeks old) were clipped with Skoville clamps without anesthesia and the clamps were removed after 5 min to realize a short period of ischemia. Twenty-four hours after the removal of the clamps, these animals were subjected to learning and memory tests were conducted after an additional 24 h. The learning and memory functions were examined by the passive avoidance method with a modification of a device reported by Jarvik and Kopp in "Psychological Reports", 21, 221 to 224 (1967). The device had two chambers, […] chamber A and a dark chamber B. In the tests, the animals were placed in the well-lighted chamber A and an electric current (A.C., 1.6 mA) was applied to a grid on the floor of the dark chamber B for 5 min when they entered the chamber B. On the next day, the animals subjected to the learning were placed in the chamber A and the time (latent time) which had elapsed before they entered the chamber B was measured. The upper limit of the latent time was set at 300 sec. The compound was administered in the form of a 5% suspension in acacia orally one hour before causing the ischemia. A 5% acacia solution was administered to the control group.

3 molecules from patent publication US4921863A, “Cyclic amine derivatives” (Eisai Co., Ltd., priority 1988, dated 1990) can be followed below.

With `O=C(CN1CCC(=Cc2ccc(F)cc2)CC1)c1ccc2ccccc2c1` [Example 74], the “Latent time (average ± S.E.)” value turned out to be 110.2 ± 29.0 s (3 mg/kg), 123.2 ± 24.3 s (10 mg/kg) and 129.2 ± 23.8 s (30 mg/kg). The Recovery ratio (3 mg/kg) was 22%, the Recovery ratio (10 mg/kg) came to 30% and the Recovery ratio (30 mg/kg) came out at 33%.
On to `Cl.O=C(CN1CCC(C(=O)c2ccc(F)cc2)CC1)c1ccc2ccccc2c1` [Example 12, 2-[4-(p-Fluorobenzoyl)-1-piperidinyl]-2'-acetonaphthone hydrochloride], for which the “Latent time (average ± S.E.)” value (3 mg/kg) is 168.8 ± 23.0 s, the “Latent time (average ± S.E.)” value (10 mg/kg) is 196.8 ± 22.3 s and the “Latent time (average ± S.E.)” value (30 mg/kg) worked out at 196.3 ± 37.0 s. Also, the Recovery ratio is, setting by setting: (3 mg/kg) 56%; (10 mg/kg) 72%; (30 mg/kg) 71%.
Turning to `c1ccc(CC2CCN(CCc3ccc4ccccc4c3)CC2)cc1` [Example 73], under “10 mg/kg”, the “Latent time (average ± S.E.)” value amounted to 193.1 ± 35.3 s and the Recovery ratio came to 69%. Moreover, under “30 mg/kg”, the “Latent time (average ± S.E.)” value was determined as 80.1 ± 28.2 s and the Recovery ratio came out at 5%.
